Source: PMC7413254 (Nature Communications, 2020)

Tests used:
Type in all cases: cell-based
PfCRT^Dd2 [1] = molecular target: T1, PfCRT^Dd2 (Plasmodium falciparum, UniProt Q9N623, A220S/I356T/K76T/M74I/N326S/N75E/Q271E/R371I); experiment: [3H]CQ uptake into Xenopus oocytes, cis-inhibition by unlabelled solute; conditions: PfCRTDd2 oocytes, background [3H]CQ accumulation subtracted, normalised to oocyte type control
Summary of the method: (§1)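 PfCRT-expressing and control oocytes: ND96 pH 5.5 → 1.5 h at 27.5 °C → ice-cold ND96 wash → 10% SDS lysis → scintillation count.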

PfCRT^Ecu1110 [2] = molecular target: T2, PfCRT^Ecu1110 (Plasmodium falciparum, UniProt Q9N623, A220S/I356L/K76T/N326D); experiment: as above; conditions: for PfCRT-mediated [3H]CQ transport, cis-inhibition (% PfCRTEcu1110 control): PfCRTEcu1110 oocytes, background [3H]CQ accumulation subtracted, normalised to oocyte type control; for [3H]CQ transport (% PfCRTEcu1110 control), cis-inhibition, PfCRTEcu1110: PfCRT-mediated component (background subtracted), sheet title says normalised to PfCRTDd2 control, mean ± SEM, SEM
Summary of the method: as §1

PfCRT^3D7 = PfCRT^3D7 (Plasmodium falciparum, UniProt Q8IBZ9); experiment: cell-based; conditions: PfCRT3D7 oocytes, normalised to oocyte type control
Summary of the method: (§2)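 Transport measured in Xenopus oocytes expressing the transporters, 1.5 h at 27.5 °C in ND96 pH 5.5 unless noted. For trans-stimulation, VF-6 injected in 25 nL ND96 at pH 5.0–7.0 or Na^+-free (choline) buffer; intracellular levels based on ~400 nL oocyte volume. Ten oocytes per treatment, ≥4 experiments.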

PfCRT^Dd2 [3] = molecular target: T1, PfCRT^Dd2; experiment: cell-based; conditions: for PfCRT-mediated [3H]CQ transport, trans-stimulation (% PfCRTDd2 control): PfCRTDd2 oocytes, normalised to oocyte type control; for [3H]CQ transport (% PfCRTDd2 control), trans-stimulation, PfCRTDd2: PfCRT-mediated component (background subtracted), mean ± SEM, SEM
Summary of the method: as §2

PfCRT^Ecu1110 [4] = molecular target: T2, PfCRT^Ecu1110; experiment: cell-based; conditions: for PfCRT-mediated [3H]CQ transport, trans-stimulation (% PfCRTEcu1110 control): PfCRTEcu1110 oocytes, normalised to oocyte type control; for [3H]CQ transport (% PfCRTDd2 control), trans-stimulation, PfCRTEcu1110: PfCRT-mediated component (background subtracted), sheet title says normalised to PfCRTDd2 control, mean ± SEM, SEM
Summary of the method: as §2

[5] = [test solute]i = 5 mM (intracellular)
[6] = [test solute]i = 45 mM (intracellular; 30 mM for some solutes due to solubility)
[7] = [test solute]i = 5 mM (injected)
[8] = [test solute]i = 45 mM (30 mM for some solutes due to solubility)

PfCRT^3D7, sequence (Q8IBZ9 59-398): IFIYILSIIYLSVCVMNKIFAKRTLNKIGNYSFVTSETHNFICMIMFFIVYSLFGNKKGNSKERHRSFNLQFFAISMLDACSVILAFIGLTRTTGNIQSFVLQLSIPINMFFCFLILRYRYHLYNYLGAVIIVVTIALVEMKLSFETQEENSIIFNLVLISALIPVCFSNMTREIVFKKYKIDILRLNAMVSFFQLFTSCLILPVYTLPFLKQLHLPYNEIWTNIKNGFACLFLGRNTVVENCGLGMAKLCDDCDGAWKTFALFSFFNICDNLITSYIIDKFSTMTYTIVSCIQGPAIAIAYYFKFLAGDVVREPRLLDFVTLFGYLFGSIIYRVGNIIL
T2 sequence (Q9N623 whole entry A220S/I356L/K76T/N326D): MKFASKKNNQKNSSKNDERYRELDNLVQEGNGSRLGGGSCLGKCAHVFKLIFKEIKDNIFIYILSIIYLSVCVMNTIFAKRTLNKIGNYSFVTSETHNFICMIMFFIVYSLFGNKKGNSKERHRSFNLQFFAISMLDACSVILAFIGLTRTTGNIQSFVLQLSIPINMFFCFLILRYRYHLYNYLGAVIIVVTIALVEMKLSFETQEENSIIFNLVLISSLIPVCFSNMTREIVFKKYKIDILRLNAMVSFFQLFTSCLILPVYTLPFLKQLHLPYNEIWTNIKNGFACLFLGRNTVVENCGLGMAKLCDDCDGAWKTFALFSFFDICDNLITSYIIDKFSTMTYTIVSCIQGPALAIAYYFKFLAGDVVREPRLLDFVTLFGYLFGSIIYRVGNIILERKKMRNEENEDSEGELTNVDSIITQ
T1 sequence (Q9N623 whole entry A220S/I356T/K76T/M74I/N326S/N75E/Q271E/R371I): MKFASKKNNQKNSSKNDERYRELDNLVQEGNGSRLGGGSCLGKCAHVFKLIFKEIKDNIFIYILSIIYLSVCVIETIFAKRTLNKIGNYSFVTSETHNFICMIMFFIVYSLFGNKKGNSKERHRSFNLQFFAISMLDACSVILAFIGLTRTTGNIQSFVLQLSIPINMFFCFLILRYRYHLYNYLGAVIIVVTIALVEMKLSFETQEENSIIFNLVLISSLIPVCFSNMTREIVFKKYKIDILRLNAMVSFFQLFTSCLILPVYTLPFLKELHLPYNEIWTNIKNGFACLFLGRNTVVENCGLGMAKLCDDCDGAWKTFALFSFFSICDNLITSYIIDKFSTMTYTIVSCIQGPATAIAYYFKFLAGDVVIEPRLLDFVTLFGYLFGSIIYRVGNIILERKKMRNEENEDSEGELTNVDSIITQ

Substance | PfCRT-mediated [3H]CQ transport, cis-inhibition (% PfCRTDd2 control) (PfCRT^Dd2 [1]; [test solute] = 0.5 mM) | PfCRT-mediated [3H]CQ transport, cis-inhibition (% PfCRTDd2 control) (PfCRT^Dd2 [1]; [test solute] = 1 mM) | PfCRT-mediated [3H]CQ transport, cis-inhibition (% PfCRTDd2 control) (PfCRT^Dd2 [1]; [test solute] = 2 mM) | PfCRT-mediated [3H]CQ transport, cis-inhibition (% PfCRTEcu1110 control) (PfCRT^Ecu1110 [2]; [test solute] = 0.5 mM) | PfCRT-mediated [3H]CQ transport, cis-inhibition (% PfCRTEcu1110 control) (PfCRT^Ecu1110 [2]; [test solute] = 1 mM) | PfCRT-mediated [3H]CQ transport, cis-inhibition (% PfCRTEcu1110 control) (PfCRT^Ecu1110 [2]; [test solute] = 2 mM) | [3H]CQ transport (% PfCRTEcu1110 control), cis-inhibition, PfCRTEcu1110 (PfCRT^Ecu1110 [2]; [test solute] = 0.5 mM) | [3H]CQ transport (% PfCRTEcu1110 control), cis-inhibition, PfCRTEcu1110 (PfCRT^Ecu1110 [2]; [test solute] = 1 mM) | [3H]CQ transport (% PfCRTEcu1110 control), cis-inhibition, PfCRTEcu1110 (PfCRT^Ecu1110 [2]; [test solute] = 2 mM) | PfCRT-mediated [3H]CQ transport, trans-stimulation (% PfCRT3D7 control) (PfCRT^3D7; [5]) | PfCRT-mediated [3H]CQ transport, trans-stimulation (% PfCRT3D7 control) (PfCRT^3D7; [6]) | PfCRT-mediated [3H]CQ transport, trans-stimulation (% PfCRTDd2 control) (PfCRT^Dd2 [3]; [5]) | PfCRT-mediated [3H]CQ transport, trans-stimulation (% PfCRTDd2 control) (PfCRT^Dd2 [3]; [6]) | [3H]CQ transport (% PfCRTDd2 control), trans-stimulation, PfCRTDd2 (PfCRT^Dd2 [3]; [7]) | [3H]CQ transport (% PfCRTDd2 control), trans-stimulation, PfCRTDd2 (PfCRT^Dd2 [3]; [8]) | PfCRT-mediated [3H]CQ transport, trans-stimulation (% PfCRTEcu1110 control) (PfCRT^Ecu1110 [4]; [5]) | PfCRT-mediated [3H]CQ transport, trans-stimulation (% PfCRTEcu1110 control) (PfCRT^Ecu1110 [4]; [6]) | [3H]CQ transport (% PfCRTDd2 control), trans-stimulation, PfCRTEcu1110 (PfCRT^Ecu1110 [4]; [7]) | [3H]CQ transport (% PfCRTDd2 control), trans-stimulation, PfCRTEcu1110 (PfCRT^Ecu1110 [4]; [8])
HVDPEN [HN-6] | 21 ± 0.7 % PfCRTDd2 control | 15 ± 1.1 % PfCRTDd2 control | 7.3 ± 0.2 % PfCRTDd2 control | 61 ± 1.5 % PfCRTEcu1110 control | 44 ± 3.1 % PfCRTEcu1110 control | 49 ± 2.4 % PfCRTEcu1110 control | 19 ± 0.3 % PfCRTEcu1110 control | 14 ± 0.1 % PfCRTEcu1110 control | 15 ± 0.4 % PfCRTEcu1110 control | 148 ± 4.6 % PfCRT3D7 control | 193 ± 4.7 % PfCRT3D7 control | 100 ± 2.1 % PfCRTDd2 control | 113 ± 1.1 % PfCRTDd2 control | 100 ± 2.1 % PfCRTDd2 control | 113 ± 1.1 % PfCRTDd2 control | 117 ± 2.2 % PfCRTEcu1110 control | 136 ± 3.2 % PfCRTEcu1110 control | 35 ± 1.3 % PfCRTEcu1110 control | 41 ± 1.6 % PfCRTEcu1110 control
HVDPENF [HF-7] | 40 ± 2.3 % PfCRTDd2 control | 31 ± 2.3 % PfCRTDd2 control | 18 ± 0.6 % PfCRTDd2 control | 41 ± 1.8 % PfCRTEcu1110 control | 31 ± 3.1 % PfCRTEcu1110 control | 22 ± 0.4 % PfCRTEcu1110 control | – | – | 7.0 ± 0.01 % PfCRTEcu1110 control | 140 ± 5.2 % PfCRT3D7 control | 189 ± 6.2 % PfCRT3D7 control | 100 ± 1.9 % PfCRTDd2 control | 112 ± 1.7 % PfCRTDd2 control | 100 ± 1.9 % PfCRTDd2 control | 112 ± 1.7 % PfCRTDd2 control | 131 ± 3.7 % PfCRTEcu1110 control | 138 ± 4.1 % PfCRTEcu1110 control | 40 ± 2.1 % PfCRTEcu1110 control | 42 ± 1.5 % PfCRTEcu1110 control
HVDPENFRL [HL-9] | 38 ± 1.0 % PfCRTDd2 control | 31 ± 0.3 % PfCRTDd2 control | 9 ± 0.8 % PfCRTDd2 control | 41 ± 2.5 % PfCRTEcu1110 control | 35 ± 2.6 % PfCRTEcu1110 control | 28 ± 0.1 % PfCRTEcu1110 control | – | – | – | 98 ± 3.5 % PfCRT3D7 control | 97 ± 3.1 % PfCRT3D7 control | 97 ± 2.0 % PfCRTDd2 control | 98 ± 3.3 % PfCRTDd2 control | – | – | 98 ± 3.6 % PfCRTEcu1110 control | 96 ± 2.1 % PfCRTEcu1110 control | – | –
KEEAE [KE-5] | 68 ± 3.2 % PfCRTDd2 control | 60 ± 4.9 % PfCRTDd2 control | 50 ± 1.1 % PfCRTDd2 control | – | 61 ± 1.5 % PfCRTEcu1110 control | 54 ± 2.1 % PfCRTEcu1110 control | 21 ± 0.4 % PfCRTEcu1110 control | 19 ± 0.3 % PfCRTEcu1110 control | 17 ± 0.3 % PfCRTEcu1110 control | 98 ± 3.3 % PfCRT3D7 control | 96 ± 2.1 % PfCRT3D7 control | 97 ± 4.2 % PfCRTDd2 control | 99 ± 3.2 % PfCRTDd2 control | 97 ± 4.2 % PfCRTDd2 control | 99 ± 3.2 % PfCRTDd2 control | 98 ± 3.1 % PfCRTEcu1110 control | 98 ± 1.3 % PfCRTEcu1110 control | 30 ± 1.5 % PfCRTEcu1110 control | 30 ± 1.3 % PfCRTEcu1110 control
KEFTPPVQA [KA-9] | 48 ± 2.0 % PfCRTDd2 control | 32 ± 2.1 % PfCRTDd2 control | 7 ± 0.1 % PfCRTDd2 control | 48 ± 2.1 % PfCRTEcu1110 control | 41 ± 2.1 % PfCRTEcu1110 control | 30 ± 1.1 % PfCRTEcu1110 control | – | – | – | 130 ± 2.2 % PfCRT3D7 control | 160 ± 3.9 % PfCRT3D7 control | 98 ± 2.2 % PfCRTDd2 control | 98 ± 1.7 % PfCRTDd2 control | – | – | 98 ± 2.8 % PfCRTEcu1110 control | 98 ± 2.0 % PfCRTEcu1110 control | – | –
